According to patent US20100316631A1, “Water Soluble Curcumin-Based Compounds” (THE UAB RESEARCH FOUNDATION, priority 2006, published 2010):

Experiments:
[1] = cited from earlier work
[2] = tested on: PC-3; test: Cytotoxicity assay, PC-3 (prostate); details: Homo sapiens, PC-3, read-out: Cytotoxicity IC50, PC-3
Protocol: (§1) The growth inhibitory effects of conjugates 5 and 8 were examined through a series of cytoxcicity assays against a variety of cancer cell types of human origin. The cell types tested were PC-3 (prostate), LS-174T (colon), MIA PaCa-2 (pancreatic) and BxPC-3 (pancreatic).
(§2) The surviving cell populations were counted on the fourth day after treatment (96 hour post-treatment). The viable cells were then counted and the numbers of treated cells were normalized against the untreated controls (taken as 100%).
(§3) Tumor cells (as indicated) were maintained as monolayers in 75-cm^2 tissue culture flasks using their respective cell culture medium containing 10% fetal bovine serum and 2 mM L-glutamine. Incubation was at 37° C. under a humidified 5% CO2: air atmosphere (standard conditions) for five days. The cells were harvested when in mid-log growth and their concentration was determined using a particle counter (Beckman Coulter, Inc, Fullerton, Calif.). An aliquot of the cell suspension was diluted in culture medium for delivery to a 24-well tissue culture plate at a range of 10,000 to 30,000 per 1 mL per well. […] Following a 96-h incubation under standard conditions from the initial treatment, the viable cells were counted and the numbers were normalized to the percent of untreated controls. […]

[3] = tested on: LS-174T; test: Cytotoxicity assay, LS-174T (colon); details: Homo sapiens, LS174T, read-out: Cytotoxicity IC50, LS-174T
Protocol: as §1, §2, §3

[4] = tested on: BxPC-3; test: Cytotoxicity assay, BxPC-3 (pancreatic); details: Homo sapiens, BXPC-3, read-out: Cytotoxicity IC50, Bx-PC3
Protocol: as §1, §2, §3

[5] = tested on: MIA PaCa-2; test: Cytotoxicity assay, MIA PaCa-2 (pancreatic); details: Homo sapiens, MIA PaCa-2, read-out: Cytotoxicity IC50, MIA PaCa-2
Protocol: as §1, §2, §3

COc1cc(/C=C/C(=O)CC(=O)/C=C/c2ccc(O)c(OC)c2)ccc1O [Curcumin, (E,E)-1,7-bis(4-hydroxy-3-methoxyphenyl)-1,6-heptadiene-3,5-dione]
solubility in water and other aqueous solutions [1]: insoluble | IC50 [2]: 12 ± 1.35 µM | IC50 [3]: 6.5 ± 1.4 µM | IC50 [4]: 2 ± 0.3 µM | IC50 [5]: 9 ± 2.5 µM
